Source: US11440906B2, “Biguanide derivatives and their rearrangement products for use in the treatment of cancer” (CENTRE NATIONAL DE LA RECHERCHE SCIENTIFIQUE, priority 2017, dated 2022)
Where two headings read alike, the source gives them in different places.

System: A375 Sensitive cells
Assay: Viability test, trypan blue exclusion, A375 Sensitive cells
Format: cell-based, human
Conditions: Homo sapiens, A-375, viable cells as percentage of DMSO control
Outline: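 A375 (B-Raf, CDKN2A, PTEN mutant) cells were exposed to compounds at 5.0 or 10 μM for 24 or 48 hr; CRO15 also at 0.5–50 μM for 48 hr or 5 μM for 2–48 hr; DMSO control. Viable cells were counted by trypan blue exclusion, as % of control. Three experiments in triplicate.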

[1] = 24 h, read-out: Viab A375 5 μM/ 24 h
[2] = 48 h, read-out: Viab A375 5 μM/ 48 h
[3] = 24 h, read-out: Viab A375 10 μM/ 24 h
[4] = 48 h, read-out: Viab A375 10 μM/ 48 h

Compound	viability at 5 µM [1] [%]	viability at 5 µM [2] [%]	viability at 10 µM [3] [%]	viability at 10 µM [4] [%]
N=c1nc(C(Cl)(Cl)Cl)nc(Nc2ccccc2O)[nH]1 [MTF 373, 2-((4-amino-6-(trichloromethyl)-1,3,5-triazin-2-yl)amino)phenol]	34.3	22.5	38.6	22.8
N=c1nc(C(Cl)(Cl)Cl)nc(Nc2cc(Cl)ccc2O)[nH]1 [MTF 374, 2-((4-amino-6-(trichloromethyl)-1,3,5-triazin-2-yl)amino)-4-chlorophenol]	47	69.2	24	27.7
N=c1nc(C(Cl)(Cl)Cl)nc(Nc2ccc(Cl)cc2O)[nH]1 [MTF 375]	47.2	29.5	30.9	15.5
Nc1nc(Nc2ccc([N+](=O)[O-])cc2O)nc(C(Cl)(Cl)Cl)n1 [MTF 376, 2-((4-amino-6-(trichloromethyl)-1,3,5-triazin-2-yl)amino)-5-nitrophenol]	44.7	38.9	24.3	20.9
Nc1nc(Nc2cc([N+](=O)[O-])ccc2O)nc(C(Cl)(Cl)Cl)n1 [MTF 377, 2-((4-amino-6-(trichloromethyl)-1,3,5-triazin-2-yl)amino)-4-nitrophenol]	27.3	34.4	22.7	33.5
N=C(NC(=N)c1ccc(Cl)nc1)Nc1nc2ccccc2s1 [MTF 379, N—(N-(benzo[d]thiazol-2-yl)carbamimidoyl)-6-chloronicotinimidamide]	148	76.9	95.7	86.2
N=C(NC(=N)c1ccnc(Cl)c1)Nc1nc2ccccc2s1 [MTF 380, N—(N-(benzo[d]thiazol-2-yl)carbamimidoyl)-2-chloroisonicotinimidamide]	47.3	4.9	36.2	2.3
N=C(NC(=N)c1cccs1)Nc1nc2ccccc2s1 [MTF 381, N—(N-(benzo[d]thiazol-2-yl)carbamimidoyl)thiophene-2-carboximidamide]	88.3	61.6	90.6	61.4
COc1cc(C(=N)NC(=N)Nc2nc3ccccc3s2)cc(OC)c1OC [MTF 382, N—(N-(benzo[d]thiazol-2-yl)carbamimidoyl)-3,4,5-trimethoxybenzimidamide]	14.7	1.8	17.4	4.5
N=C(NC(=N)c1ccc2c(c1)OCO2)Nc1nc2ccccc2s1 [MTF 383, N—(N-(benzo[d]thiazol-2-yl)carbamimidoyl)benzo[d][1,3]dioxole-5-carboximidamide]	43.1	40.6	41.6	7.1
N=C(NC(=N)c1ccc2ccccc2c1)Nc1nc2ccccc2s1 [MTF 384, N—(N-(benzo[d]thiazol-2-yl)carbamimidoyl)-2-naphthimidamide]	76.1	119	93.3	72.2
N=C(NC(=N)c1ccc(C(F)(F)F)cc1)Nc1nc2ccccc2s1 [MTF 385, N—(N-(benzo[d]thiazol-2-yl)carbamimidoyl)-4-(trifluoromethyl)benzimidamide]	52.3	68.1	86.6	81.5
N=C(NC(=N)c1ccnc(Br)c1)Nc1nc2ccccc2s1 [MTF 386, N—(N-(benzo[d]thiazol-2-yl)carbamimidoyl)-2-bromoisonicotinimidamide]	28.9	6.6	18.1	3.7
N=C(NC(=N)c1cscc1Br)Nc1nc2ccccc2s1 [MTF 387, N—(N-(benzo[d]thiazol-2-yl)carbamimidoyl)-4-bromothiophene-3-carboximidamide]	70.1	56.2	67.8	55.6
CC1(C)C=Cc2cc(C(=N)NC(=N)Nc3nc4ccccc4s3)ccc2O1 [MTF 388, N—(N-(benzo[d]thiazol-2-yl)carbamimidoyl)-2,2-dimethyl-2H-chromene-6-carboximidamide]	61.4	65.1	55.7	18.4
N=C(NC(=N)c1ncc(Cl)cc1Cl)Nc1nc2ccccc2s1 [MTF 389, N—(N-(benzo[d]thiazol-2-yl)carbamimidoyl)-3,5-dichloropicolinimidamide]	74.6	85.6	75.8	76.4
Nc1nc(Nc2ccccc2SSc2ccccc2Nc2nc(N)nc(-c3ccc(C(F)(F)F)cc3)n2)nc(-c2ccc(C(F)(F)F)cc2)n1 [MTF 394, N2,N2′-(disulfanediylbis(2,1-phenylene))bis(6-(4-(trifluoromethyl)phenyl)-1,3,5-triazine-2,4-diamine)]	13.1	4.4	4.5	1.1
Nc1nc(Nc2ccccc2SSc2ccccc2Nc2nc(N)nc(-c3cccs3)n2)nc(-c2cccs2)n1 [MTF 396, N2,N2′-(disulfanediylbis(2,1-phenylene))bis(6-(thiophen-2-yl)-1,3,5-triazine-2,4-diamine)]	19.2	12.1	7.5	0
Nc1nc(Nc2ccccc2SSc2ccccc2Nc2nc(N)nc(-c3cscc3Br)n2)nc(-c2cscc2Br)n1 [MTF 397, N2,N2′-(disulfanediylbis(2,1-phenylene))bis(6-(4-bromothiophen-3-yl)-1,3,5-triazine-2,4-diamine)]	35.4	33.7	13.4	7.3
N=C(NC(=N)c1ccc([N+](=O)[O-])cc1)Nc1nc2ccccc2s1 [MTF 398, N—(N-(benzo[d]thiazol-2-yl)carbamimidoyl)-4-nitrobenzimidamide]	91.9	132	91	109
Nc1nc(Nc2ccccc2SSc2ccccc2Nc2nc(N)nc(-c3ccc4ccccc4c3)n2)nc(-c2ccc3ccccc3c2)n1 [MTF 443, N2,N2′-(disulfanediylbis(2,1-phenylene))bis(6-(naphthalen-2-yl)-1,3,5-triazine-2,4-diamine)]	42.3	10.2	13.8	7.8
Nc1nc(Nc2ccccc2SSc2ccccc2Nc2nc(N)nc(-c3cccc([N+](=O)[O-])c3)n2)nc(-c2cccc([N+](=O)[O-])c2)n1 [MTF 445, N2,N2′-(disulfanediylbis(2,1-phenylene))bis(6-(3-nitrophenyl)-1,3,5-triazine-2,4-diamine)]	62.6	35.2	72.4	16.3
COc1cc(-c2nc(N)nc(Nc3ccccc3SSc3ccccc3Nc3nc(N)nc(-c4cc(OC)c(OC)c(OC)c4)n3)n2)cc(OC)c1OC [MTF 446, N2,N2′-(disulfanediylbis(2,1-phenylene))bis(6-(3,4,5-trimethoxyphenyl)-1,3,5-triazine-2,4-diamine)]	62.6	13	16.3	1.8
Nc1nc(Nc2ccccc2SSc2ccccc2Nc2nc(N)nc(-c3ccc4c(c3)OCO4)n2)nc(-c2ccc3c(c2)OCO3)n1 [MTF 449, N2,N2′-(disulfanediylbis(2,1-phenylene))bis(6-(benzo[d][1,3]dioxol-5-yl)-1,3,5-triazine-2,4-diamine)]	74.2	67.8	59.1	53
Nc1nc(Nc2ccccc2SSc2ccccc2Nc2nc(N)nc(-c3ccccc3Cl)n2)nc(-c2ccccc2Cl)n1 [MTF 450, N2,N2′-(disulfanediylbis(2,1-phenylene))bis(6-(2-chlorophenyl)-1,3,5-triazine-2,4-diamine)]	38.6	54.8	38.3	49.9
Cc1ccc(-c2nc(N)nc(Nc3ccccc3SSc3ccccc3Nc3nc(N)nc(-c4ccc(C)cc4)n3)n2)cc1 [MTF 451, N2,N2′-(disulfanediylbis(2,1-phenylene))bis(6-(p-tolyl)-1,3,5-triazine-2,4-diamine)]	26.1	23.9	10.6	12.5
Nc1nc(Nc2ccccc2SSc2ccccc2Nc2nc(N)nc(-c3ccccc3F)n2)nc(-c2ccccc2F)n1 [MTF 452, N2,N2′-(disulfanediylbis(2,1-phenylene))bis(6-(2-fluorophenyl)-1,3,5-triazine-2,4-diamine)]	43.6	60.5	22.3	40.3
Nc1nc(Nc2ccccc2SSc2ccccc2Nc2nc(N)nc(-c3c(Cl)cccc3Cl)n2)nc(-c2c(Cl)cccc2Cl)n1 [MTF 455, N2,N2′-(disulfanediylbis(2,1-phenylene))bis(6-(2,6-dichlorophenyl)-1,3,5-triazine-2,4-diamine)]	89	108	32.3	69.5
